Holding throughout (assay): NCI anticancer screen, dose series, 48 h
In assay [1] the test system is SK-OV-3 ovarian.
For assay [2], the system named is RPMI-8226 leukemia.
For assay [3], the system named is NCI-H460 lung.
In assay [4] the test system is T-47D breast.
For assay [5], the system named is KM12 colon.
For assay [6], the system named is HOP-92 NSCLC.
In assay [7] the test system is MDA-MB-435.
The test system of assay [8] is NCI/ADR-RES ovarian.
Assay [9] concerns SK-MEL-2 melanoma.
Assay [10] concerns MDA-MB-231 breast.
In assay [11] the test system is SK-MEL-28 melanoma.
Assay [12] has as its system HCT-116 colon.
Assay [13] deals with CAKI-1 renal.
The subject of assay [14] is RXF 393 renal.
Assay [15] concerns SF-539 CNS.
The test system of assay [16] is DU-145 prostate.
Assay [17] deals with 786-0 renal.
The subject of assay [18] is OVCAR-4 ovarian.
In assay [19] the test system is K-562 leukemia.
Assay [20] relates to MDA-N.

Each structure is given as a SMILES string.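 Results reflect a 48-hour exposure of cells in 96-well plates to compound at five concentrations. TGI denotes the concentration required for complete inhibition of growth.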

On to `Cc1ccc(C2N=C(N)NC3=C2CCOc2c3ccc3ccccc23)cc1` (stereo not given), for which the TGI in assay [1] is more than 100 µM; in assay [2], more than 63.2 µM; in assay [3] it was more than 100 µM; in [4], more than 65.3 µM; in assay [5], more than 51.1 µM; in [6], 57.5 µM. Also, the TGI in assay [7] is more than 23.4 µM; in assay [8] it was more than 60.5 µM; in assay [9] it was more than 100 µM; in assay [10], 32.7 µM; in assay [11] it was more than 100 µM; in [12] it was 12.3 µM. Moreover, the TGI was 28.5 µM in assay [13]; 97.9 µM in assay [14]; 44.7 µM in assay [15]; more than 85.4 µM in assay [16]; more than 71.7 µM in assay [17]; more than 83.7 µM in assay [18]. The compound also came in with a TGI in assay [19] of more than 44.1 µM.
In the case of `Cc1cc(C)nc(SCC(=O)OC2CC(C)CCC2C(C)C)n1` (stereo not given), the TGI in [1] is more than 100 µM; in assay [2], 41.3 µM; in [3] it was 35.8 µM; in [4] it was 54.2 µM; in assay [5] it was 42.7 µM; in assay [6], 67.1 µM. The TGI is 58.3 µM in assay [7]; 50.7 µM in assay [8]; 41.9 µM in [9]; 49.7 µM in assay [10]; more than 100 µM in assay [11]; 47 µM in assay [12]. Besides, the TGI in assay [13] is 48.6 µM; in assay [14] it was 32 µM; in assay [16], more than 100 µM; in [17], 42.6 µM; in assay [18], 50.6 µM; in assay [19], 52.2 µM.
For `CCC12CCCNC1c1c(n(C)c3ccccc13)C(C(=O)OC)C2` (stereo not given), the TGI in assay [1] is 186 µM; in assay [2] it was 199 µM; in [3], more than 275 µM; in assay [5] it was 161 µM; in [6] it was 113 µM; in assay [9], 259 µM. For the same compound, the TGI in assay [11] was more than 275 µM; in assay [12], more than 275 µM; in assay [13], 77.3 µM; in assay [14], 153 µM; in [15], more than 275 µM; in assay [17], more than 275 µM. Besides, in [19], the TGI was more than 275 µM.
For `CC(=O)Nc1ccc(-c2nc3ccccc3s2)cc1C`, the TGI in [1], in assay [2], in [3], in [4], in assay [5] and in assay [6] was more than 100 µM in each case. Also, the TGI in [7], in [8], in assay [9], in assay [10], in [11] and in assay [12] was more than 100 µM throughout. Besides, the TGI in assay [13] was 59 µM; in assay [14], more than 100 µM; in assay [15], more than 100 µM; in assay [16], 55.6 µM; in [17] it was more than 100 µM; in [18] it was more than 100 µM.
On to `CSc1cc(Br)ccc1-n1c(C(=O)c2ccccc2)c(SC)n(-c2ccccc2)c1=O`, for which the TGI in assay [1], in assay [3], in assay [5], in assay [6], in assay [8] and in assay [20] was more than 100 µM in each case. Further, the TGI in assay [10], in assay [11], in assay [12], in assay [13], in assay [15] and in assay [17] was more than 100 µM each time. Further, the TGI in [18] and in assay [19] was more than 100 µM throughout.
Turning to `Cc1cc(C)n2c(-c3ccccc3)c(C)cc2n1`, the TGI in assay [1], in assay [3], in assay [5], in assay [6], in [9] and in [11] was more than 100 µM each time. Moreover, the TGI was more than 100 µM in [12]; more than 100 µM in [13]; more than 100 µM in assay [14]; 73.4 µM in assay [15]; more than 100 µM in assay [17]; more than 100 µM in [18]. Further, the TGI in assay [19] was more than 100 µM.
`COC(=O)C1=CC2CC1C(S(=O)(=O)c1ccccc1)C2S(=O)(=O)c1ccccc1` (stereo not given): the TGI in [1] was more than 100 µM; in assay [2] it was 29.3 µM; in assay [3] it was 51.5 µM; in assay [6] it was 29.4 µM; in assay [11], 30.4 µM; in assay [12] it was 28.7 µM. The TGI is 20.8 µM in assay [13], 22.2 µM in assay [17], 39.9 µM in [18] and 32.3 µM in assay [19].
Take `CC(C)(C)CNC(=O)NCn1cc(-c2ccccc2)nn1`: the TGI in assay [2], in assay [3], in [5], in assay [6], in assay [8] and in [9] was more than 100 µM throughout. Moreover, the TGI in assay [10], in [11], in assay [12], in assay [13], in assay [15] and in assay [16] was more than 100 µM in each case. For the same compound, the TGI in [17] and in assay [19] was more than 100 µM each time.
Turning to `CC(Oc1ccc(OCC2CCCCC2)cc1)C(=O)NCCO` (stereo not given), the TGI in [1], in assay [3], in assay [5], in assay [9], in assay [11] and in [12] was more than 100 µM throughout. The TGI in assay [14], in assay [15], in assay [17], in assay [18] and in [19] was more than 100 µM throughout.

Values taken from PubChem BioAssay (NCI).
